Results taken from patent US5187074A, “Method of hydroxylation with ATCC 55086” (Merck & Co., Inc., priority 1992, dated 1993).

Target: T1, HIV protease (Human immunodeficiency virus type 1 group M subtype B, UniProt P12497)
T1 construct: HIV protease expressed in Escherichia coli; made in house; host or cells: Escherichia coli
Assay: Assay for Inhibition of Recombinant HIV Protease (APRIN 2.1)
Type: biochemical
Settings: pH 5.5, 60 min, 37° C.
Experimental: Assay for Inhibition of Recombinant HIV Protease (APRIN 2.1)
Inhibition studies were performed on the reaction of the HIV protease expressed in Escherichia coli with a tritiated peptide substrate [^3 H]-acetyl-Val-Ser-Gln-Asn-(beta-napthyl-Ala)-Pro-Ile-Val-Gln-Gly-Arg-Arg-NH2 (MW 1800). The two arginine residues at the carboxyl terminus give this peptide an overall positive charge at acidic pH and enable it to bind to the H^+ form of DOWEX AG-50W-X8 resin and similar resins.
Aliquots of 25 μl containing 6.0-8.0 nM HIV protease in assay buffer (100 mM sodium acetate, pH 5.5 and 0.1% BSA) are placed in assay tubes. The reaction is initiated by addition of 25 μl aliquots of 4.2 μM tritiated peptide substrate in 100 mM sodium acetate, pH 5.5. After incubation for 60 min at 37° C., the reaction is stopped with 100 μl of 5% H3 PO4, then analysed by application of column chromatography.

With `CC(C)(C)OC(=O)N[C@@H](Cc1ccccc1)[C@@H](O)C[C@@H](Cc1ccc(OCCN2CCOCC2)cc1)C(=O)N[C@H]1c2ccccc2C[C@H]1O` [L-689,502, N-(cis-2(R)-hydroxy-1(S) -indanyl)-5(S)-(1,1-dimethylethoxycarbonylamino)-4(S)-hydroxy-6-phenyl-2(R)-[(4-(2-(4-morpholinyl)ethoxy)phenyl)methyl]-hexanamide] the inhibition at 0.000625 µg/mL (0.625 ng/ml, control) was -2%, the inhibition at 0.00125 µg/mL (1.25 ng/ml, control) was 21% and the inhibition at 0.0025 µg/mL (2.5 ng/ml, control) was 54%. The inhibition at 0.005 µg/mL (5 ng/ml, control) was 69% and the inhibition at 0.01 µg/mL (10 ng/ml, control) was 86%.

For `CC(C)(CO)OC(=O)N[C@@H](Cc1ccccc1)[C@@H](O)C[C@@H](Cc1ccc(OCCN2CCOCC2)cc1)C(=O)N[C@H]1c2ccccc2C[C@H]1O` [L-697,811], the inhibition at 0.0116 µg/mL (11.6 ng/ml, major metabolite from culture S-29-145, read-out: APRIN 2.1 Act. (% Inhib.)) was 92%.
